These results are taken from ChEMBL document CHEMBL4396961, “Exploring the size of the lipophilic unit of the soluble epoxide hydrolase inhibitors” (Bioorg Med Chem, 2019).

≈ marks a conversion by molar mass, not a printed value.

Series [1] is described as follows: Microsomal stability in human microsomes assessed as parent compound remaining in presence of NADP, glucose-6-phosphate and glucose-6-phosphate dehydrogenase measured after 60 mins by UPLC-MS/MS analysis.
The target in series [2] is T1, Bifunctional epoxide hydrolase 2 (Mus musculus, UniProt P34914).
T1 sequence (P34914 whole entry): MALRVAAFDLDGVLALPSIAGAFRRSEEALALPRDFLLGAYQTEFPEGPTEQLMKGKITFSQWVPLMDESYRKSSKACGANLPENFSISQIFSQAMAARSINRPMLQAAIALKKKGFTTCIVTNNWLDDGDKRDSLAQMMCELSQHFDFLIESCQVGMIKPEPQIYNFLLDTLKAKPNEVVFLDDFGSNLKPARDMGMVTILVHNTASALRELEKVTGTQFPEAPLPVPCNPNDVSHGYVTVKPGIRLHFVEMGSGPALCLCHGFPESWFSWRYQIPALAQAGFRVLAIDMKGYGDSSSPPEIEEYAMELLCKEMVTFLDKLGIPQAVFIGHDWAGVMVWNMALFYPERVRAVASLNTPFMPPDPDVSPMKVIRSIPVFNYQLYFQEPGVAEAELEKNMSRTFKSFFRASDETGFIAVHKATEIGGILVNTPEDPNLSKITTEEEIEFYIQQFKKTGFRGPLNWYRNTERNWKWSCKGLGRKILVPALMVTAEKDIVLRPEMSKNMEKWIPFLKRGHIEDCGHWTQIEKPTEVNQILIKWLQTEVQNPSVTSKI
Description: Inhibition of murine soluble epoxide hydrolase expressed in baculovirus infected Sf21 cells using NEPC as substrate by fluorescence based assay. It counts as cell-based.

Series [3] in a line: Efflux ratio of apparent permeability across basolateral to apical membrane over apical to basolateral membrane in human Caco2 cells at 10 uM measured after 2 hrs by UPLC-MS/MS analysis. Particulars: caco-2, 2 h. A general note: Caco-2 cells form a polarised layer with tight junctions and transporters.
The target of series [4] is T2, Bifunctional epoxide hydrolase 2 (Homo sapiens, UniProt P34913).
T2 sequence (P34913 whole entry): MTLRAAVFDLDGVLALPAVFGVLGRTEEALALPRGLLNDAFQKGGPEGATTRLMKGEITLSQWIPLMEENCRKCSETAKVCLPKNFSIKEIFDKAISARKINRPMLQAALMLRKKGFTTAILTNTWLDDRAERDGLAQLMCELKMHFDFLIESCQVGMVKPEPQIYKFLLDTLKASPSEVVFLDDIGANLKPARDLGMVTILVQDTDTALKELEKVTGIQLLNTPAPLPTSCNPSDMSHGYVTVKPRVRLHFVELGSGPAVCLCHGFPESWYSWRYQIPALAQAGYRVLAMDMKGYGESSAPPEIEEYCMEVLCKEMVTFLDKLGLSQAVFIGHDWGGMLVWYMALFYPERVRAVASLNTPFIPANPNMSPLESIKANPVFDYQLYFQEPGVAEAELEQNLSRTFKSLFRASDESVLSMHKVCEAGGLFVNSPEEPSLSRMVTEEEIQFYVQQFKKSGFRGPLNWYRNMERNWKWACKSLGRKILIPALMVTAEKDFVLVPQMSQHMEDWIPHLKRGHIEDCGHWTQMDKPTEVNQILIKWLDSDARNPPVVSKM
Description: Inhibition of recombinant human liver soluble epoxide hydrolase expressed in baculovirus infected Sf21 cells using NEPC as substrate by fluorescence based assay. It counts as cell-based.

A short description of series [5]: Apparent permeability across apical to basolateral membrane in human Caco2 cells at 10 uM measured after 2 hrs by UPLC-MS/MS analysis. The settings on record: caco-2, 2 h.
The nature of series [6]: Apparent permeability across basolateral to apical membrane in human Caco2 cells at 10 uM measured after 2 hrs by UPLC-MS/MS analysis. Particulars: caco-2, 2 h.
A short description of the next series: physchem. The settings on record: 1% DMSO : 99% PBS buffer solution.

As to `CC(=O)N1CCC(NC(=O)NC2C3CC4C5CC6CC4C2C(C6)C5C3)CC1` (stereo unspecified), in series [1], the remaining at 1 h was 0%. In addition, the IC50 (as a rule, the concentration that inhibits the measured activity by half) is 5 nM in series [2] and 3.4 nM in series [4]. For the same compound, the Ratio in series [3] came out at 1. For the same compound, the Papp (as a rule, a coefficient for how fast a substance crosses the barrier) was found to be 15.62 ×10⁻⁶ cm/s in series [5] and 14.69 ×10⁻⁶ cm/s in series [6]. Moreover, the kinetic solubility – broadly, the concentration staying in solution when a stock, usually in DMSO, is diluted into the medium – at 2 h in the series “physchem” amounted to 86 µM (≈ 32 µg/mL).
On to `O=C(Nc1ccc(F)c(F)c1F)NC12CC3CC(CC(C3)C1)C2`, for which the Papp in series [5] amounted to 1.18 ×10⁻⁶ cm/s; in series [6], 0.18 ×10⁻⁶ cm/s. Also, in the series “physchem”, the solubility (kinetic) at 2 h was 57 µM (≈ 18.5 µg/mL).
Regarding `CC(=O)N1CCC(NC(=O)NC23CC4(C)CC2CC4(C)C3)CC1`, in series [1], the remaining at 1 h worked out at 59.3%. Further, the IC50 was determined as 3.3 nM in series [2] and 6.5 nM in series [4]. For the same compound, the Ratio in series [3] stood at 1.1. Further, the Papp in series [5] amounted to 15.92 ×10⁻⁶ cm/s; in series [6] it was 18.02 ×10⁻⁶ cm/s. In the series “physchem”, the solubility (kinetic) at 2 h is more than 100 µM.
Turning to `C[C@]12CC[C@H]3[C@@H](CCC4=CC(=O)CC[C@@]43C)[C@@H]1CC[C@@H]2O` [TESTOSTERONE], the remaining at 1 h in series [1] stood at 22.4%.
For the compound `CC12CC3CC1(C)CC3(NC(=O)Nc1ccc(F)c(F)c1F)C2`, in series [1], the remaining at 1 h is 30%. Besides, the IC50 in series [4] stood at 0.5 nM. This compound also came in with a kinetic solubility at 2 h in “physchem” of 66 µM (≈ 21.4 µg/mL).
`CC(=O)N1CCC(NC(=O)NC23CC4CC(CC(C4)C2)C3)CC1` [AR9281] displayed a solubility (kinetic) at 2 h in the series “physchem” of more than 100 µM.
As to `CC(=O)N1CCC(NC(=O)NC23CC4CC(CC2C4)C3)CC1`, the remaining at 1 h in series [1] turned out to be 88.7%. Further, the half-maximal inhibitory concentration (IC50) in series [4] was determined as 21.7 nM.
For the compound `O=C(NC1C2CC3C4CC5CC3C1C(C5)C4C2)N[C@H]1CC[C@H](Oc2ccc(C(=O)O)cc2)CC1` (stereo partly specified), the remaining at 1 h in series [1] stood at 14.6%. Also, the Ratio in series [3] was determined as 22.2. In addition, the IC50 in series [4] is 0.5 nM. Moreover, the Papp was 0.31 ×10⁻⁶ cm/s in series [5] and 6.75 ×10⁻⁶ cm/s in series [6]. Besides, in the series “physchem”, the solubility (kinetic) at 2 h came to 7 µM (≈ 3.25 µg/mL).
For the compound `CC12CC3CC1(C)CC3(CNC(=O)Nc1ccc(F)c(F)c1F)C2`, the IC50 in series [4] was 0.4 nM.
